Assay results: patent publication US20240383922A1, “KRAS Modulating Compounds” (Gilead Sciences, Inc., priority 2023, published 2024)
Read-outs that look alike come from different tables or passages of the source.

Experiments:
[1] = tested on: cellular pERK in ASPC-1 (KRAS G12D) cell-line; assay: Cell based pERK assay (HTRF), ASPC-1; settings: ASPC-1 (KRAS G12D) cells, 2 hours incubation
Procedure: (§1) Compounds were tested in a 384-well assay format for their ability to inhibit cellular pERK in Kuramochi (WT KRAS), MIA-PaCa-2 (KRAS-G12C), ASPC-1 (KRAS G12D), and NCI-H441 (KRAS-G12V) cell-lines. Compounds were serially diluted (1:3) in DMSO. On day −1, 80 uL of cells were plated per well in the 384 well tissue-culture plates (Greiner: Cat #781080) to seed 5000 cells per wells of AsPC-1 or 7500 cells of MIA-PaCa-2, NCI-H441, and Kuramochi cell lines in RPMI (Corning: Cat #10-040-CM) with 10% fetal bovine serum (FBS) (HyClone: Cat #SH30071-03) and 1× penicillin-streptomycin-glutamate (PSG) (Corning: Cat #30-009-CI) for […] and Kuramochi cell lines and DMEM (Corning: Cat #15-018-CM) with […] and 1× PSG for MKA-PaCa-2 cell line. The plates were then incubated overnight at 37° C. and 5% CO2. On day 0, 400 nL of compound/well was added into the cell plates and mixed 5 times by pipetting using a Beckmann Biomek FX. The cell plates were then incubated for 2 hours at 37° C. and 5% CO2. HTRF Advanced Phospho-ERK1/2 ([…]) Detection Kits (PerkinElmer: Cat #64AERPEG) were used to prepare the lysis and detection solution according to manufacturer protocol. Following the 2 hour incubation, 70 μL of medium was aspirated from the plates and 10 uL of lysis and detection solution was added to the plates using a Biotek EL406 washer and dispenser. Plates were sealed and stored overnight at room temperature. HTRF ratio (665 nm/615 nm) was read by Envision multimode reader (PerkinElmer) the next day. The TR-FRET ratios were normalized to a positive (saturating concentration of known inhibitor) and negative (DMSO) control and plotted against the log of compound concentration. IC50 values were defined as the compound concentration that causes a […] in normalized signal and were calculated using a sigmoidal dose-response model to generate curve fits.

[2] = tested on: cellular pERK in NCI-H441 (KRAS-G12V) cell-line; assay: Cell based pERK assay (HTRF), NCI-H441; settings: NCI-H441 (KRAS-G12V) cells, 2 hours incubation
Procedure: as §1

[3] = tested on: cellular pERK in MIA-PaCa-2 (KRAS-G12C) cell-line; assay: Cell based pERK assay (HTRF), MIA-PaCa-2; settings: MIA-PaCa-2 (KRAS-G12C) cells, 2 hours incubation, read-out: MIAPaCa2 pERK EC50
Procedure: as §1

[4] = tested on: cellular pERK in Kuramochi (WT KRAS) cell-line; assay: Cell based pERK assay (HTRF), Kuramochi; settings: Kuramochi (WT KRAS) cells, 2 hours incubation
Procedure: as §1

Structure (SMILES) | EC50 ([1]; read-out: AsPC1 pERK EC50) [nM] | EC50 [2] [nM] | EC50 [3] [nM] | EC50 [4] [nM] | EC50 ([1]; Homo sapiens, ASPC1) [nM] | EC50 ([2]; Homo sapiens) [nM] | EC50 ([3]; Homo sapiens) [nM]
C#Cc1c(F)ccc2cc(O)cc(-c3c(F)c4c5c(nc(OC[C@@]67CCCN6C[C@H](F)C7)nc5c3F)N3CCCOC[C@@H]3CC4)c12 (atropisomer, axis not shown) [Example 24-1, 4-((11S,14a5)-10,12-difluoro-8-(((2R,7a5)-2-fluorotetrahydro-1H-pyrrolizin-7a(5H1)-yl)methoxy)-1,4,5,13,14,14a-hexahydro-3H-[1,4]oxazepino[4′,3′:1,7]azepino[2,3,4-de]quinazolin-11-yl)-5-ethynyl-6-fluoronaphthalen-2-ol] | 85 | 55.3 | 46.7 | 138 | – | – | –
C#Cc1c(F)ccc2cc(O)cc(-c3c(F)c4c5c(nc(OC[C@@]67CCCN6C[C@H](F)C7)nc5c3F)N3CCCOC[C@@H]3CC4)c12 (atropisomer, axis not shown) [Example 24-2, 4-((11R,14aS)-10,12-difluoro-8-(((2R,7aS)-2-fluorotetrahydro-1H-pyrrolizin-7a(5H)-yl)methoxy)-1,4,5,13,14,14a-hexahydro-3H-[1,4]oxazepino[4′,3′:1,7]azepino[2,3,4-de]quinazolin-11-yl)-5-ethynyl-6-fluoronaphthalen-2-ol] | 1.69 | 8.01 | 0.82 | 2.64 | – | – | –
C#Cc1c(F)ccc2cc(N)cc(-c3c(F)c4c5c(nc(OC[C@@]67CCCN6C[C@H](F)C7)nc5c3F)N3CCCOC[C@@H]3CC4)c12 (atropisomer, axis not shown) [Example 25-1, 4-((11S,14aS)-10,12-difluoro-8-(((2R,7aS)-2-fluorotetrahydro-1H-pyrrolizin-7a(5H)-yl)methoxy)-1,4,5,13,14,14a-hexahydro-3H-[1,4]oxazepino[4′,3′:1,7]azepino[2,3,4-de]quinazolin-11-yl)-5-ethynyl-6-fluoronaphthalen-2-amine] | > 1000 | > 1000 | – | > 1000 | – | – | –
C#Cc1c(F)ccc2cc(O)cc(-c3nc4c5c(nc(OC[C@@]67CCCN6C[C@H](F)C7)nc5c3F)N3CC(F)(F)COCC3CC4)c12 (mixture of isomers) [Example 6-17] | – | – | – | – | 10.6 | 3.71 | 0.7
C#Cc1c(F)ccc2cc(O)cc(-c3nc4c5c(nc(OC[C@@]67CCCN6C[C@H](F)C7)nc5c3F)N3CCCCCC3CC4)c12 (mixture of isomers) [Example 6-20] | – | – | – | 9.39 | 120 | 86.2 | 11
C#Cc1c(F)ccc2cc(O)cc(-c3nc4c5c(nc(OC[C@@]67CCCN6C[C@H](F)C7)nc5c3F)N3CCOCC[C@H]3CC4)c12 (single isomer, unassigned) [Example 9-1] | – | – | – | 46.9 | 315 | 101 | 15.8
C#Cc1c(F)ccc2cc(O)cc(-c3nc4c5c(nc(OC[C@@]67CCCN6C[C@H](F)C7)nc5c3F)N3CCOCC[C@H]3CCC4)c12 (single isomer, unassigned) [Example 10-1] | – | – | – | 8.55 | 208 | 68.8 | 18.4
C#Cc1c(F)ccc2cc(O)cc(-c3nc4c5c(nc(OC[C@@]67CCCN6C[C@H](F)C7)nc5c3F)N3CCOCC[C@@H]3CCC4)c12 (single isomer, unassigned) [Example 10-2] | – | – | – | 340 | > 1000 | > 1000 | 248
C#Cc1c(F)ccc2cc(O)cc(-c3nc4c5c(nc(OC[C@@]67CCCN6C[C@H](F)C7)nc5c3F)N3CC(F)(F)COC[C@H]3CC4)c12 (single isomer, unassigned) [Example 17-1] | – | – | – | 2.95 | 54.9 | 7.68 | 0.89
C#Cc1c(F)ccc2cc(O)cc(-c3nc4c5c(nc(OC[C@@]67CCCN6C[C@H](F)C7)nc5c3F)N3CC(F)(F)COC[C@@H]3CC4)c12 (single isomer, unassigned) [Example 17-2] | – | – | – | 2.29 | 10.8 | 5.1 | 1.3
C#Cc1c(F)ccc2cc(N)cc(-c3c(F)c4c5c(nc(OC[C@@]67CCCN6C[C@H](F)C7)nc5c3F)N3CCCOC[C@@H]3CC4)c12 (single isomer, unassigned) [Example 25-2] | 67.2 | 92 | – | – | – | – | –
C#Cc1c(F)ccc2cc(O)cc(-c3nc4c5c(nc(OC[C@@]67CCCN6C[C@H](F)C7)nc5c3F)N3CCCC[C@H]3CC4)c12 [Example 1-1, 5-ethynyl-6-fluoro-4-((S)-1-fluoro-11-(((2R,7aS)-2-fluorotetrahydro-1H-pyrrolizin-7a(5H)-yl)methoxy)-5,5a,6,7,8,9-hexahydro-4H-3,9a,10,12-tetraazabenzo[4,5]cyclohepta[1,2,3-de]naphthalen-2-yl)naphthalen-2-ol] | 25.1 | 14.7 | 12.6 | 3.89 | – | – | –
CCc1c(F)ccc2cc(O)cc(-c3nc4c5c(nc(OC[C@@]67CCCN6C[C@H](F)C7)nc5c3F)N3CCCC[C@H]3CC4)c12 [Example 2-1, 5-ethyl-6-fluoro-4-((S)-1-fluoro-11-(((2R,7aS)-2-fluorotetrahydro-1H-pyrrolizin-7a(5H)-yl)methoxy)-5,5a,6,7,8,9-hexahydro-4H-3,9a,10,12-tetraazabenzo[4,5]cyclohepta[1,2,3-de]naphthalen-2-yl)naphthalen-2-ol] | 114 | 74.6 | 54.9 | 24.7 | – | – | –
C#Cc1c(F)ccc2cc(N)cc(-c3cc4c5c(nc(OC[C@@]67CCCN6C[C@H](F)C7)nc5c3F)N3CCCOCC3CC4)c12 (stereo partly drawn) [Example 3-2] | – | – | – | 46.5 | 288 | 104 | 87.7
C#Cc1c(F)ccc2cc(O)cc(-c3nc4c5c(nc(OC[C@@]67CCCN6C[C@H](F)C7)nc5c3F)N3CCCOC[C@@H]3CC4)c12 [Example 6-1, 5-ethynyl-6-fluoro-4-((S)-1-fluoro-12-(((2R,7aS)-2-fluorotetrahydro-1H-pyrrolizin-7a(5H)-yl)methoxy)-4,5,5a,6,9,10-hexahydro-8H-7-oxa-3,10a,11,13-tetraazanaphtho[1,8-ab]heptalen-2-yl)naphthalen-2-ol] | – | – | – | 1.35 | 1.27 | 0.42 | 0.11
C#Cc1c(F)ccc2cc(O)cc(-c3nc4c5c(nc(OC[C@@]67CCCN6C[C@H](F)C7)nc5c3F)N3CCCOCC3CC4)c12 (stereo partly drawn) [Example 6-2] | – | – | – | 4.46 | 3.74 | 2.09 | 1.01
Oc1cc(-c2nc3c4c(nc(OC[C@@]56CCCN5C[C@H](F)C6)nc4c2F)N2CCCOC[C@H]2CC3)c2c(F)c(F)ccc2c1 [Example 6-3] | – | – | – | 25.8 | 91.9 | 48 | 28.9
C#Cc1c(F)ccc2cccc(-c3nc4c5c(nc(OC[C@@]67CCCN6C[C@H](F)C7)nc5c3F)N3CCCOC[C@H]3CC4)c12 [Example 6-4] | – | – | – | > 1000 | > 1000 | > 1000 | > 1000
C#Cc1c(F)ccc2cc(O)cc(-c3nc4c5c(nc(OC[C@@]67CCCN6C[C@H](F)C7)nc5c3F)N3CCCOC[C@H]3CC4)c12 [Example 6-5] | – | – | – | 44.9 | 85.8 | 32.2 | 13.6
C#Cc1c(F)ccc2cc(N)cc(-c3nc4c5c(nc(OC[C@@]67CCCN6C[C@H](F)C7)nc5c3F)N3CCCOC[C@@H]3C=C4C)c12 [Example 7-7] | – | – | – | – | 8.61 | 4.01 | 1.97
Cc1c(F)c(N)cc(-c2nc3c4c(nc(OC[C@@]56CCCN5C[C@H](F)C6)nc4c2F)N2CCCOC[C@@H]2CC3)c1C(F)(F)F [Example 7-11] | – | – | – | 188 | > 1000 | 724 | –
CCc1c(F)c(F)cc2cc(N)cc(-c3nc4c5c(nc(OCC67CCCN6CCC7)nc5c3F)N3CCCOC[C@@H]3CC4)c12 [Example 8-4] | – | – | – | 128 | > 1000 | > 1000 | –
C#Cc1c(F)ccc2cc(N)cc(-c3nc4c5c(nc(OC[C@@]67CCCN6[C@H](COC(=O)N(C)C)CC7)nc5c3F)N3CCCOC[C@@H]3CC4)c12 [Example 23-4] | – | – | – | 4.1 | 78 | 57 | –
